One series has as its system Phospholipidosis.
Details: not given
Consider `CCSCC[C@H](N)C(=O)O` [ETHIONINE], for which the Phospholipidosis entry is “Not Active”.
With `NC(N)=Nc1nc(CSCCC(N)=NS(N)(=O)=O)cs1` [FAMOTIDINE], the Phospholipidosis entry is given as “Not Active”.
Regarding `N=C(N)NCCCCCCCCCCNC(=N)N` [SYNTHALIN], the Phospholipidosis result is “Not Active”.
The same measure, in the same setting: the value for `CC(NC(C)(C)C)C(=O)c1cccc(Cl)c1` (stereo unspecified) [BUPROPION] was “Not Active”.
Regarding `CN(C)CCN(Cc1cccs1)c1ccccn1`, the Phospholipidosis result is listed as “Not Active”.
Turning to `C[C@H]1c2cccc(O)c2C(=O)C2=C(O)[C@]3(O)C(=O)C(C(N)=O)=C(O)[C@@H](N(C)C)[C@@H]3[C@@H](O)[C@@H]21.O` [DOXYCYCLINE], the Phospholipidosis entry is listed as “Not Active”.
In the case of `CN(Cc1cnc2nc(N)nc(N)c2n1)c1ccc(C(=O)N[C@@H](CCC(=O)O)C(=O)O)cc1` [METHOTREXATE], the Phospholipidosis entry was “Not Active”.
Same read-out and setting: the value for `CC(=O)O[C@]1(C(C)=O)CC[C@H]2[C@@H]3C=C(Cl)C4=CC(=O)[C@@H]5C[C@@H]5[C@]4(C)[C@H]3CC[C@@]21C` [CYPROTERONE ACETATE] was “Not Active”; that for `O=C(O)Cc1ccccc1Nc1c(Cl)cccc1Cl` [DICLOFENAC] was “Not Active”.
For `S=C=Nc1cccc2ccccc12` [1-NAPHTHYLISOTHIOCYANATE], the Phospholipidosis result is on record as “Not Active”.
Take `[N-]=[N+]=CC(=O)OC[C@H](N)C(=O)O` [AZASERINE]: the Phospholipidosis entry is reported as “Not Active”.
On the same count and under the same terms, the entry for `CCOC(=O)C(C)(C)Oc1ccc(Cl)cc1` [CLOFIBRATE] is “Not Active”.
`CC(c1cc2ccccc2s1)N(O)C(N)=O` (stereo unspecified) [ZILEUTON]: the Phospholipidosis result was “Not Active”.
The same measure, in the same setting: the value for `CN(C)[C@@H]1C(O)=C(C(=O)NCN2CCCC2)C(=O)[C@@]2(O)C(O)=C3C(=O)c4c(O)cccc4[C@@](C)(O)[C@H]3C[C@@H]12` [ROLITETRACYCLINE] was “Not Active”; that for `CCN(CC)CCOC(=O)c1ccc(N)cc1` [PROCAINE] was “Not Active”; that for `N[C@H]1C(O)O[C@H](CO)[C@@H](O)[C@@H]1O` (stereo partly specified) [GLUCOSAMINE] was “Not Active”.
Turning to `CC(=O)Nc1ccc(O)cc1` [ACETAMINOPHEN], the Phospholipidosis entry is listed as “Not Active”.
As to `CN1C(C(=O)Nc2ccccn2)=C(O)c2ccccc2S1(=O)=O` [PIROXICAM], the Phospholipidosis result is “Not Active”.
On the same count and under the same terms, the value for `CNC(=O)Oc1ccc2c(c1)[C@]1(C)CCN(C)[C@@H]1N2C` [PHYSOSTIGMINE] was “Not Active”.
On to `CC(=O)N(O)CCCCCNC(=O)CCC(=O)N(O)CCCCCNC(=O)CCC(=O)N(O)CCCCCN` [DEFEROXAMINE], for which the Phospholipidosis entry is “Not Active”.
On to `COc1cc2c(cc1OC)C(=O)C(CC1CCN(Cc3ccccc3)CC1)C2` (stereo unspecified) [DONEPEZIL], for which the Phospholipidosis entry is listed as “Not Active”.
`Cn1nnc2c(C(N)=O)ncn2c1=O` [TEMOZOLOMIDE]: the Phospholipidosis result is on record as “Not Active”.
On the same count and under the same terms, the entry for `NN` [HYDRAZINE] is “Not Active”; for `CC(C)OC(=O)C(C)(C)Oc1ccc(C(=O)c2ccc(Cl)cc2)cc1` [FENOFIBRATE] it is “Not Active”.
Turning to `O=C1CN(/N=C/c2ccc(-c3ccc([N+](=O)[O-])cc3)o2)C(O)=N1` [DANTROLENE], the Phospholipidosis result is “Not Active”.
In the case of `Cn1c(=O)c2c(ncn2C)n(C)c1=O` [CAFFEINE], the Phospholipidosis result is reported as “Not Active”.
With `CC(=O)Oc1ccccc1C(=O)O` [ASPIRIN], the Phospholipidosis entry is reported as “Not Active”.
As for `CC(C)(Oc1ccc(C2CC2(Cl)Cl)cc1)C(=O)O` (stereo unspecified) [CIPROFIBRATE], the Phospholipidosis result was “Not Active”.
`CC(C)C(=O)Nc1ccc([N+](=O)[O-])c(C(F)(F)F)c1` [FLUTAMIDE]: the Phospholipidosis result is “Not Active”.
Regarding `CN(C)C(=N)N=C(N)N` [METFORMIN], the Phospholipidosis result was “Not Active”.
`ClC(Cl)(Cl)Cl` [CARBON TETRACHLORIDE]: the Phospholipidosis result was “Not Active”.
For `O=C(O)CCCCCCNC1c2ccccc2CCc2ccccc21` [AMINEPTINE], the Phospholipidosis entry is “Not Active”.
On the same count and under the same terms, the entry for `CC(O)(CS(=O)(=O)c1ccc(F)cc1)C(=O)Nc1ccc(C#N)c(C(F)(F)F)c1` (stereo unspecified) [BICALUTAMIDE] is “Not Active”.
In the case of `Cl.Cl.O=C(CCN1CCN2CCCC2C1)N1c2ccccc2Sc2ccc(Cl)cc21` (stereo unspecified) [AZACLORZINE HYDROCHLORIDE], the Phospholipidosis entry is “Not Active”.
For the molecule `CO[C@H]1/C=C/O[C@@]2(C)Oc3c(C)c(O)c4c(O)c(c(/C=N/N5CCN(C)CC5)c(O)c4c3C2=O)NC(=O)/C(C)=C\C=C\[C@H](C)[C@H](O)[C@@H](C)[C@@H](O)[C@@H](C)[C@H](OC(C)=O)[C@@H]1C` [RIFAMPIN], the Phospholipidosis result was “Not Active”.
Same read-out and setting: the entry for `C=C1C[C@@H]1C[C@H](N)C(=O)O` is “Not Active”; for `Cc1ccc2cc3c(ccc4ccccc43)c3c2c1CC3` [3-METHYLCHOLANTHRENE] it is “Not Active”.
Turning to `COc1cc([C@@H]2c3cc4c(cc3[C@@H](O[C@@H]3O[C@@H]5CO[C@@H](C)O[C@H]5[C@H](O)[C@H]3O)[C@H]3COC(=O)[C@H]23)OCO4)cc(OC)c1O` [ETOPOSIDE], the Phospholipidosis result was “Not Active”.
For `NC(=O)OCC(COC(N)=O)c1ccccc1` [FELBAMATE], the Phospholipidosis result was “Not Active”.
For `C[C@](N)(Cc1ccc(O)c(O)c1)C(=O)O` [METHYLDOPA], the Phospholipidosis entry was “Not Active”.
With `Cc1ccc(C)c(OCCCC(C)(C)C(=O)O)c1` [GEMFIBROZIL], the Phospholipidosis entry was “Not Active”.
For the molecule `CN(C)[C@@H]1C(O)=C(C(N)=O)C(=O)[C@@]2(O)C(O)=C3C(=O)c4c(O)ccc(Cl)c4[C@@H](O)[C@H]3C[C@@H]12` [DEMECLOCYCLINE], the Phospholipidosis entry is recorded as “Not Active”.
With `CCC(=O)C(CC(C)N(C)C)(c1ccccc1)c1ccccc1` (stereo unspecified) [METHADONE], the Phospholipidosis entry is listed as “Not Active”.
`CCCC(CCC)C(=O)[O-].[Na+]` [VALPROATE SODIUM]: the Phospholipidosis result was “Not Active”.
Same read-out and setting: the entry for `C#C[C@]1(O)CC[C@H]2[C@@H]3CCc4cc(O)ccc4[C@H]3CC[C@@]21C` [ETHINYL ESTRADIOL] is “Not Active”.
On to `Cc1cccc(Nc2cc(Cl)nc(SCC(=O)O)n2)c1C` [PIRINIXIC ACID], for which the Phospholipidosis result is recorded as “Not Active”.
Regarding `Nc1c2c(nc3ccccc13)CCCC2` [TACRINE], the Phospholipidosis result is reported as “Not Active”.
As to `O=C(O)c1cc(-c2ccc(F)cc2F)ccc1O` [DIFLUNISAL], the Phospholipidosis entry is recorded as “Not Active”.
Same read-out and setting: the entry for `CC(=N)S` [THIOACETAMIDE] is “Not Active”.
On to `Nc1nc(NC2CC2)c2ncn([C@H]3C=C[C@@H](CO)C3)c2n1` [ABACAVIR], for which the Phospholipidosis result is “Not Active”.
Turning to `COc1cc2c(c(OC)c1OC)-c1ccc(OC)c(=O)cc1[C@@H](NC(C)=O)CC2` [COLCHICINE], the Phospholipidosis result is on record as “Not Active”.
As for `ClC(Cl)Cl` [CHLOROFORM], the Phospholipidosis result is on record as “Not Active”.
On to `Cc1cn([C@H]2C=C[C@@H](CO)O2)c(=O)[nH]c1=O` [STAVUDINE], for which the Phospholipidosis result was “Not Active”.
On the same count and under the same terms, the entry for `CCC1(c2ccccc2)C(=O)NC(=O)NC1=O` [PHENOBARBITAL] is “Not Active”; for `CCN1CC(CCN2CCOCC2)C(c2ccccc2)(c2ccccc2)C1=O` (stereo unspecified) [DOXAPRAM] it is “Not Active”.
Consider `Cc1cn([C@H]2C[C@H](N=[N+]=[N-])[C@@H](CO)O2)c(=O)[nH]c1=O` [ZIDOVUDINE], for which the Phospholipidosis result is recorded as “Not Active”.
Consider `CN(C)[C@@H]1C(O)=C(C(N)=O)C(=O)[C@@]2(O)C(O)=C3C(=O)c4c(O)ccc(Cl)c4[C@@](C)(O)[C@H]3C[C@@H]12` [CHLORTETRACYCLINE], for which the Phospholipidosis result is on record as “Not Active”.
Turning to `CC(C)(O/N=C(\C(=O)N[C@@H]1C(=O)N2C(C(=O)[O-])=C(C[n+]3ccccc3)CS[C@H]12)c1csc(N)n1)C(=O)O` [CEFTAZIDIME], the Phospholipidosis result is listed as “Not Active”.
Turning to `CC1=C(CC(=O)O)c2cc(F)ccc2/C1=C\c1ccc([S+](C)[O-])cc1` (stereo unspecified), the Phospholipidosis result is listed as “Not Active”.
The same measure, in the same setting: the value for `NC(=O)N1c2ccccc2C=Cc2ccccc21` [CARBAMAZEPINE] was “Not Active”.
On to `NC(=O)NO` [HYDROXYUREA], for which the Phospholipidosis result was “Not Active”.

The next series relates to Phospholipidosis. As to conditions: rat.
Take `CCN(CC)CCn1nc2c3c(c(C)ccc31)Sc1cc(Cl)ccc1-2`: the Phospholipidosis result is “Active”.
Take `CN(C)CCCN1c2ccccc2CCc2ccccc21` [IMIPRAMINE]: the Phospholipidosis entry is on record as “Active”.
On to `CN1CCN(C(c2ccccc2)c2ccc(Cl)cc2)CC1` (stereo unspecified) [CHLORCYCLIZINE], for which the Phospholipidosis entry is “Active”.
On the same count and under the same terms, the entry for `CN(C)CCC=C1c2ccccc2CCc2c(Cl)cccc21` is “Active”; for `CN1CCN(C2=Nc3cc(Cl)ccc3Nc3ccccc32)CC1` [CLOZAPINE] it is “Active”.
As to `Cc1cccc(CN2CCN(C(c3ccccc3)c3ccc(Cl)cc3)CC2)c1` (stereo unspecified) [MECLIZINE], the Phospholipidosis result is recorded as “Active”.
For `CN(C)CCCC1c2ccccc2Nc2ccc(Cl)cc21` (stereo unspecified) [CLOMACRAN], the Phospholipidosis result is “Active”.
For `NC[C@H]1Cc2ccc(F)cc2[C@@H](c2ccccc2)O1`, the Phospholipidosis result is recorded as “Active”.
Turning to `CCOc1ccc(NC(C)=O)cc1` [PHENACETIN], the Phospholipidosis entry is on record as “Active”.
`CCCC[C@@H]1CC(=O)[C@]2(O)O[C@@H]3[C@@H](NC)[C@@H](O)[C@@H](NC)[C@H](O)[C@H]3O[C@@H]2O1.O=S(=O)(O)O`: the Phospholipidosis result was “Active”.
Same read-out and setting: the value for `CN(C)CCCN1c2ccccc2CCc2ccc(Cl)cc21` [CLOMIPRAMINE] was “Active”; that for `Clc1ccc(C(c2ccccc2)N2CCNCC2)cc1` (stereo unspecified) [NORCHLORCYCLIZINE] was “Active”; that for `CCN(CC)CCCC(C)Nc1c2ccc(Cl)cc2nc2ccc(OC)cc12` (stereo unspecified) [QUINACRINE] was “Active”.
With `OCCOCCN1CCN(C(c2ccccc2)c2ccc(Cl)cc2)CC1` (stereo unspecified) [HYDROXYZINE], the Phospholipidosis entry is reported as “Active”.
Consider `NCC[C@H](O)C(=O)N[C@@H]1C[C@H](N)[C@@H](O[C@H]2O[C@H](CN)[C@@H](O)[C@H](O)[C@H]2O)[C@H](O)[C@H]1O[C@H]1O[C@H](CO)[C@@H](O)[C@H](N)[C@H]1O` [AMIKACIN], for which the Phospholipidosis result is reported as “Active”.
